Data set [1] relates to Rhizopus oryzae JCM14625 strain (=NBRC 5384). The data set can be described thus: LDH activity evaluation-1: mycelia prepared from spores in surfactant-supplemented PDB medium, LDH activity of fungus body extract. Type of data set: cell-based. As to conditions: for LDH activity (relative value): 0.5% (w/v) surfactant in PDB medium at spore germination, LDH activity in the absence of the surfactant = 100; for LDH activity compared with control fungus bodies (in words): 0.5% (w/v) surfactant at spore germination, versus medium non-supplemented with the surfactant. On the procedure:
A loopful of a cryopreserved spore suspension sample (−80° C.) of a Rhizopus oryzae JCM14625 strain (=NBRC 5384) obtained from a culture collection Riken BioResource Center (BRC) was inoculated to a PDA medium (Difco Potato Dextrose Agar, manufactured by Becton, Dickinson and Company) and then statically cultured at 30° C. for from 7 to 10 days. After visual confirmation of hyphal growth and blackening at the ends of hyphae associated with sporulation, from 30 to 40 mL of saline was added thereto. Spores, together with hyphae, were collected into a 50-mL centrifugal tube with a lid (manufactured by Greiner bio-one) using a platinum loop and then vigorously mixed in the tube. The spore suspension thus mixed was filtered through 3GP100 cylindrical funnel-shaped glass filter (manufactured by Shibata Scientific Technology Ltd.). The resulting filtrate was used as a spore solution. The number of spores in the spore solution was measured using a hemocytometer (D=1/50 mm· 1/400 mm^2) after appropriate dilution with saline.
80 mL of a PDB medium non-supplemented or supplemented with 0.5% (w/v) (final concentration) of each surfactant described below was applied to a 200-mL baffled Erlenmeyer flask (manufactured by Asahi Glass Co., Ltd.). The Rhizopus oryzae spore suspension prepared in Production Example 1 was inoculated thereto at a dose of 1×10^3 spores/mL of the medium and then cultured at 27° C. for 3 days with stirring at 170 rpm. Since mycelia would remain on the filter, the cultures were filtered through a stainless sieve of 250 μm in mesh size (manufactured by AS ONE Corp.) sterilized in advance to recover fungus bodies onto the filter.
From3.0 to 4.0 g (wet weight) of the recovered fungus bodies was inoculated to 100 mL of an inorganic culture medium (composition: 10% glucose, 0.1% ammonium sulfate, 0.06% potassium dihydrogen phosphate, 0.025% magnesium sulfate heptahydrate, 0.009% zinc sulfate heptahydrate, and 5.0% calcium carbonate; all the concentrations mean % (w/v)) applied to a 500-mL Erlenmeyer flask, and then cultured at 27° C. for approximately 40 hours with stirring at 220 rpm. Subsequently, the cultures thus obtained by culture in the inorganic culture medium were filtered using a stainless screen filter holder (manufactured by EMD Millipore) sterilized in advance to recover fungus bodies onto the filter. On this filter holder, the fungus bodies were further washed with 100 mL of saline. The saline used in washing was removed by suction filtration. The obtained fungus bodies were used in the following LDH activity evaluation and evaluation of the ability to fermentatively produce lactic acid.
6.0 g of the wet fungus bodies of the genus Rhizopus obtained in Production Example 3 was inoculated to 40 mL of an inorganic culture medium for lactic acid production evaluation (composition: 8.0% glucose, 0.1% ammonium sulfate, 0.06% potassium dihydrogen phosphate, 0.025% magnesium sulfate heptahydrate, 0.009% zinc sulfate heptahydrate, and 5.0% calcium carbonate; all the concentrations mean % (w/v)) applied to a 200-mL Erlenmeyer flask, and then cultured at 35° C. with stirring at 170 rpm. After 4.5-hour culture of the fungus bodies of the genus Rhizopus with stirring, the fungus bodies were filtered using a stainless screen filter holder (manufactured by EMD Millipore) sterilized in advance to recover fungus bodies onto the filter. On this filter holder, the fungus bodies were further washed with 100 mL of saline. The saline used in washing was removed by suction filtration. 0.3 g of the obtained fungus bodies was recovered into a 3-mL disruption tube (manufactured by Yasui Kikai Corp.). Metal cone for 3 mL (manufactured by Yasui Kikai Corp.) was added to the tube, which was then capped and then frozen in liquid nitrogen. The frozen 3-mL disruption tube was applied to Multi-Beads Shocker (manufactured by Yasui Kikai Corp.). The fungus bodies were disrupted at 1700 rpm for 10 seconds.

The test system is the same in data set [2]. The data set is described as follows: Evaluation of ability to produce lactic acid-1 (production rate of lactic acid). In kind it is cell-based. The note with it: 0.5% (w/v) surfactant in PDB medium at spore germination; rate in the absence of the surfactant = 100. As for the experimental part: Specifically, the mycelia of a fungus of the genus Rhizopus were prepared by the method of Production Example 2 using the surfactant and then grown by the method of Production Example 3. 6.0 g of the obtained wet fungus bodies of the genus Rhizopus was inoculated to 40 mL of an inorganic culture medium for lactic acid production evaluation (composition: 8.0% glucose, 0.1% ammonium sulfate, 0.06% potassium dihydrogen phosphate, 0.025% magnesium sulfate heptahydrate, 0.009% zinc sulfate heptahydrate, and 5.0% calcium carbonate; all the concentrations mean % (w/v)) applied to a 200-mL Erlenmeyer flask, and then cultured at 35° C. with stirring at 170 rpm. The supernatant of the culture medium was recovered every 2 hours from 30 minutes after the fungus body inoculation. Glucose and lactic acid were quantified by the procedures described later in Reference Example 1. A relative value of the production rate of lactic acid was determined on the basis of the calculation method described in Reference Example 2.
Glucose and lactic acid were quantified using an HPLC apparatus LaChrom Elite (manufactured by Hitachi High-Technologies Corp.). The analytical column used was a carbohydrate/organic acid analysis column HPX-87H (7.8 mm I.D.×30 cm, manufactured by Bio-Rad Laboratories, Inc.) connected with a guard column Cation H (4.6 mm I.D.×3.0 cm, manufactured by Bio-Rad Laboratories, Inc.). Elution was performed under conditions involving 10 mM sulfuric acid as an eluent, a flow rate of 0.85 mL/min, and a column temperature of 50° C. Glucose and lactic acid were detected using a differential refractive index detector (RI detector) and a UV detector (detection wavelength: 210 nm), respectively. The standard samples used were glucose (distributor code: 049-31165, manufactured by Wako Pure Chemical Industries Ltd.), and lithium L-lactate (product number: L2250, manufactured by Sigma-Aldrich Inc.). Quantification was performed on the basis of concentration calibration curves prepared using these standard samples.
The supernatant sample of each culture medium to be subjected to HPLC analysis was appropriately diluted in advance with 37 mM sulfuric acid and then applied to DISMIC-13cp (0.20 μm cellulose acetate membrane, manufactured by […] Group) or MULTI SCREEN MNHV45 (0.45 μm Durapore membrane, manufactured by EMD Millipore) to remove insoluble matter.
The concentration of lactic acid (unit: g of lactic acid/L of medium) in the supernatant sample of each culture medium was measured according to Reference Example 1 and divided by a time (unit: hr) required for change in lactic acid concentration to calculate the production rate of lactic acid per unit time (unit: g of lactic acid/L/hr). In addition, a relative value to the production rate of lactic acid under control conditions in each Production Example was determined.

Data set [3] can be described thus: Evaluation of foaming property by the inversion stirring method. In kind it is physicochemical. As to conditions: for Volume of foam relative to the volume of foam in the absence of the surfactant (in words): 0.5% (w/v) in PDB medium; for Volume of foam (relative value): 0.5% (w/v) surfactant in PDB medium, 30 seconds after stirring, foam in the absence of the surfactant = 100. On the procedure: Each surfactant used in Test Example 2 was evaluated for its foaming properties by the inversion stirring method. 100 mL of a PDB medium non-supplemented or supplemented with 0.5% (w/v) (final concentration) of a surfactant was added to a graduated cylindrical container of 50 mm in diameter and then inversion-stirred for 300 seconds using a flat propeller while the propeller was inverted every 6 seconds at 1000 rpm. 30 seconds after the completion of stirring, the volume of foam in the medium was measured.

For Polyoxyethylene (5) lauryl ether, the “LDH activity (relative value)” value in data set [1] is given as 112 relative value.

In the case of Polyoxyethylene (6) lauryl ether, in data set [1], the “LDH activity compared with control fungus bodies (in words)” value was “slightly lower LDH activity” and the “LDH activity (relative value)” value was 93 relative value.

Take “Polyoxyethylene (4) sorbitan monolaurate”: in data set [2], the “Production rate of lactic acid (relative value)” value is on record as 142 relative value. In data set [3], the “Volume of foam relative to the volume of foam in the absence of the surfactant (in words)” value is “twice or less” and the “Volume of foam (relative value)” value was determined as 150 relative value. For the same substance, in data set [1], the “LDH activity (relative value)” value is 140 relative value.

For Polyoxyethylene (4) lauryl ether, in data set [2], the “Production rate of lactic acid (relative value)” value is 171 relative value. In addition, the “Volume of foam (relative value)” value in data set [3] amounted to 350 relative value. For the same substance, in data set [1], the “LDH activity (relative value)” value is 214 relative value.

Consider “Polyoxyethylene (20) sorbitan monolaurate”, for which the “Production rate of lactic acid (relative value)” value in data set [2] is reported as 137 relative value. In addition, the “Volume of foam (relative value)” value in data set [3] was determined as 1350 relative value. Further, the “LDH activity (relative value)” value in data set [1] amounted to 148 relative value.

As to Polyoxyethylene (10) octyl phenyl ether, the “Production rate of lactic acid (relative value)” value in data set [2] is given as 254 relative value. Besides, in data set [3], the “Volume of foam (relative value)” value is 2000 relative value. Further, in data set [1], the “LDH activity compared with control fungus bodies (in words)” value is given as “higher LDH activity” and the “LDH activity (relative value)” value was 178 relative value.

Take Sorbitan monooleate: the “Production rate of lactic acid (relative value)” value in data set [2] is listed as 113 relative value. For the same substance, in data set [3], the “Volume of foam relative to the volume of foam in the absence of the surfactant (in words)” value is “twice or less” and the “Volume of foam (relative value)” value worked out at 100 relative value. Moreover, in data set [1], the “LDH activity compared with control fungus bodies (in words)” value is on record as “higher LDH activity” and the “LDH activity (relative value)” value was found to be 135 relative value.

For Sodium deoxycholate, in data set [1], the “LDH activity compared with control fungus bodies (in words)” value is listed as “higher LDH activity” and the “LDH activity (relative value)” value was determined as 109 relative value.

As for Polyoxyethylene (3) lauryl ether, in data set [2], the “Production rate of lactic acid (relative value)” value came to 203 relative value. Also, the “Volume of foam (relative value)” value in data set [3] is listed as 250 relative value. The “LDH activity (relative value)” value in data set [1] amounted to 170 relative value.
